Measurements published in patent publication US9656949B2, “Substituted carboxylic acid derivatives as aggrecanase inhibitors for the treatment of osteoarthritis” (MERCK PATENT GMBH, priority 2013, dated 2017).
≈ marks a conversion by molar mass, not a printed value. Starred links: 1 amine or outer side, 2 acyl side, 3 side chain; linkers in the order of their positions; H or OH if unused. Non-standard residues stand in square brackets, D forms with d. Residues, ends and D or L forms follow the SMILES beside them. *: point of attachment. X1 = N[C@@H](CC(=O)[*:2])[C@H](Cc1ccccc1)N[*:1]; Isovaleryl = CC(C)CC(=O)*

What was measured:
[1] = biological target: T1, human recombinant AdamTS-5 (Homo sapiens, UniProt Q9UNA0); assay: Biochemical activity testing of ADAMTS-5: aggrecan peptide cleavage assay (AlphaScreen); details: 4.5 nM human recombinant AdamTS-5, biotinylated 43mer aggrecan peptide, 180 min at 37° C.; read-out: IC50 [ADAM-NTS5]M
T1 construct: purchased R&D systems, Wiesbaden, Germany
T1 sequence (Q9UNA0 262-930): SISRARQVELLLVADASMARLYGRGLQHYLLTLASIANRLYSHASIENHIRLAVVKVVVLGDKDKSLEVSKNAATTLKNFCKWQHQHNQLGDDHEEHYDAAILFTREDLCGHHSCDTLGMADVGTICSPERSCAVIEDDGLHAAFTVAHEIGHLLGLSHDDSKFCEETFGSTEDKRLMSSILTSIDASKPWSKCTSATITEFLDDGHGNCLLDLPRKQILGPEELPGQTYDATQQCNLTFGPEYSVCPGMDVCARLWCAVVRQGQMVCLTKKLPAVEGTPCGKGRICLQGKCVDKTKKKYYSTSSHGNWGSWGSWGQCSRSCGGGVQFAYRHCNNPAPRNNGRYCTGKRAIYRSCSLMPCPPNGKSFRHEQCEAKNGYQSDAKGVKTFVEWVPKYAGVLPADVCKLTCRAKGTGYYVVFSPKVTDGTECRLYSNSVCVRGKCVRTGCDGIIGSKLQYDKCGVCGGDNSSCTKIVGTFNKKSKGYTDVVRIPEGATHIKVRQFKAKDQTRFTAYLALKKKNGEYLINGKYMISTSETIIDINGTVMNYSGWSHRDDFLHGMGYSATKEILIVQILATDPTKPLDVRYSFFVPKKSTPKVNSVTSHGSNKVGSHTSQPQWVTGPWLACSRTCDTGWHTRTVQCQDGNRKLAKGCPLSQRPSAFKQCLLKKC
Experimental: ADAMTS-5 is a metallo protease with glutamyl-endoprotease activity and cleaves aggrecan core protein at E373-A374 in the interglobular domain. To fully analyse the inhibitory potential of compounds on AdamTS-5 activity an Alphascreen® assay with a biotinylated 43mer aggrecan oligopeptide as substrate was performed. Cleavage by ADAMTS-5 caused production of a neoepitop N-terminus ARGS at the C-terminal fragment. The detection of this product is performed with streptavidin-AlphaScreen® donor beads binding to the biotin label and an anti-neoepitop (“ARGSV”) antibody that anchors anti-mouse IgG-coated AlphaLisa® acceptor beads to the other end of the generated fragment. Thereby, donor and acceptor beads get in proximity and a luminescence Alphascreen® signal is generated via the release of singlet oxygen. The cleavage activity was detectable directly by the increase in Alphascreen® signal.
The aggrecan peptide cleavage assay was performed as 384 well AlphaScreen® (Perkin Elmer) assay format in Perkin Elmer 384 AlphaPlate (proxiplate) shallow well microtiter plates and was used for high throughput screen in a total assay volume of 10 μl. 4.5 nM human recombinant AdamTS-5 (R&D systems, Wiesbaden, Germany) and 30 nM biotinylated peptide […]-K(bio) (custom-made, Biosynthan, Berlin, Germany) as substrate were incubated in a total volume of 6 μl (100 mM Tris/HCl, 150 mM NaCl, 10 mM CaCl2, 0.05% Brij®-35, 1% DMSO, 0.084% BSA, pH 7.5) in the absence or presence of the test compound (10 dilution concentrations) for 180 min at 37° C. The reaction was stopped and the first detection step performed by the addition of 2 μl detection solution 1 (48 mM EDTA, 8 nM aggrecan antibody N-term neoepitope ARG, mouse monoclonal BC3 antibody (MDBioproducts, Egg, Switzerland), 100 μg/ml Streptavidin Alphascreen® donor beads (Perkin Elmer, Rodgau, Germany) in 100 mM Tris/HCl, 150 mM NaCl, 0.05% Brij®-35, 0.1% BSA, pH 7.5). After an one-hour incubation at 37° C. 2 μl of the second detection solution (25 μg/ml anti-mouse AlphaLisa® acceptor beads (Perkin Elmer, Rodgau, Germany) in 100 mM Tris/HCl, 150 mM NaCl, 0.05% Brij®-35, 0.1% BSA, pH 7.5 were added. The plates were incubated for […] in the dark.
The AlphaScreen signal was measured with an Envision multimode reader (Perkin Elmer LAS Germany GmbH) with the Alphascreen protocol from Perkin Elmer (laser mode) emission wavelength 570 nm. The full value used was the inhibitor-free reaction. For the zero value a pharmacological reference was used. The inhibitory values (IC50) for the compounds were determined using either the program Symyx Assay Explorer® or Condosseo® from GeneData.

[2] = system: bovine cartilage explants; assay: GAG-Assay (GAG release from bovine cartilage explants); assay type: cell-based; details: Bos taurus, GAG release into supernatant, unit inferred
Experimental: The assay is based on bovine cartilage explants from the metacarpal joint (MCP) with a diameter of 4 mm and a thickness of 1-2 mm. Explants are freshly harvested at the day of slaughter. Before the start of the experiment, explants are incubated in DMEM medium+10% serum+30 μg/ml ascorbic acid for 48 h (200 μl). The pre-incubation is performed to enlarge the assay window. Explants are incubated at 37° C. and 7.5% CO2. The number of replicates for all groups is n=4.
Induction of cartilage degradation is induced by treatment of the explants with IL-1 alpha (10 ng/ml) in serum-free medium for 5 days. As negative control, explants are left untreated in serum-free DMEM medium. This control is not part of the baseline calculation but an internal control for the degree of degradation which is strictly dependent on the IL1-alpha quality. IL-1 alpha induces the activity of proteases such as ADAMTS-5 and MMPs which in turn degrade the matrix. Degradation products of the matrix (GAG: glycosaminoglycan) can be measured in the supernatant. The level of GAG release induced by IL1-alpha is defined as the 0% effect level. […] This DRC is the basis for the IC50 calculation.
IL-1 alpha and the ADAMTS-5 inhibitors are incubated for 5 days, then GAG is measured in the supernatant. The explants are digested with papain to determine the amount of GAG in the explants.
In order to investigate the effect of potential cathepsin D inhibitors on cartilage degradation, a pH-induced model based on bovine explants is used. The pH of the medium in which the explants are cultivated is matched here to the pathophysiological pH of an arthritic knee. This pH is pH 5.5. […] The amount of GAGs liberated can be determined quantitatively with the aid of DMMB (dimethylmethylene blue hydrochloride). If sulfated GAGs are detected using dimethylmethylene blue hydrochloride, the decrease in the absorption at 633 nm is utilised. […] In order to determine the concentration, a calibration line is also recorded using chondroitin sulfate. […]

Solubility pH7.4 = assay type: physicochemical; details: pH 7.4, aqueous buffer
[3] = system: carrageenan-induced inflammation of rat knee joint; assay: Investigation of the anti-hyperalgesic effect in animals (carrageenan injected intra-articularly into rat knee joint); assay type: in vivo; details: intra-articular administration 30 minutes before CAR
Experimental: In order to induce an inflammation reaction, a carrageenan solution (CAR, 1%, 50 μl) was injected intra-articularly on one side into a rat knee joint. The uninjected side was used for control purposes. Six animals per group were used. The […] was determined by means of a micrometer screw (medial-lateral on the knee joint), and the thermal hyperalgesia was determined by means of a directed infrared light source by the Hargreaves method (Hargreaves et al., 1988) on the sole of the foot. Since the site of inflammation (knee joint) is different from the site of measurement (paw sole), use is made here of the term secondary thermal hyperalgesia, the mechanism of which is of importance for the discovery of effective analge-sics.
Experimental description of thermal hyperalgesia (Hargreaves test): the experimental animal is placed in a plastic chamber on a quartz sheet. Before testing, the experimental animal is firstly given about 5-15 minutes time to familiarise itself with the environment. […] Light reflected by the paw is recorded as long as the experimental animal sits still. Withdrawal of the paw interrupts this reflection, after which the infrared light source is switched off and the time from switching on to switching off is recorded. […]

SMILES | IC50 [1] | solubility (Solubility pH7.4) | IC50 [2] | CAR-induced swelling ([3]; rat knee joint, TAC 10 μg/joint) | thermal hyperalgesia (Hargreaves test) ([3]; rat, difference in withdrawal times between inflamed and non-inflamed paw)
C[C@]12C=CC(=O)C=C1CC[C@H]1[C@@H]3C[C@@H](O)[C@](O)(C(=O)CO)[C@@]3(C)C[C@H](O)[C@@]12F [TAC, Triamcinolone, reference compound] |  |  |  | capable of reducing the CAR-induced swelling | 
CC[C@H](C)[C@H](NC(=O)C[C@H](N)[C@H](Cc1ccccc1)NC(=O)[C@@H](NC(=O)[C@H](CC(C)C)NC(=O)CC(C)C)C(C)C)C(=O)N[C@H](C(=O)O)C(C)C [specific DDR2 inhibitor, (S)-2-[(2S,3S)-2-((3S,4S)-3-amino-4-{(S)-3-methyl-2-[(S)-4-methyl-2-(3-methyl-butyrylamino)pentanoylamino]butyrylamino}-5-phenylpentanoylamino)-3-methylpentanoylamino]-3-methylbutyric acid] (Isovaleryl-LV[X1]IV-OH) |  |  |  |  | able to reduce the extent of thermal hyperalgesia as a function of the dose

More lines, main results first:

IC50 [1] | solubility (Solubility pH7.4) | SMILES | IC50 [2] | CAR-induced swelling ([3]; rat knee joint, TAC 10 μg/joint) | thermal hyperalgesia (Hargreaves test) ([3]; rat, difference in withdrawal times between inflamed and non-inflamed paw)
85 nM | 677 µg/mL (≈ 1380 µM) | C[C@@H](C[C@H](NC(=O)c1ccc(-c2ccccc2)cc1)C(=O)NC(C)(C)Cc1ccc(F)cc1)C(=O)O [Compound 5, (2S,4S)-4-[(Biphenyl-4-carbonyl)-amino]-4-[2-(4-fluoro-phenyl)-1,1-dimethyl-ethylcarbamoyl]-2-methyl-butyric acid] | 1800 nM |  | 
170 nM | 157 µg/mL (≈ 303 µM) | CCC[C@@H](C[C@H](NC(=O)c1ccc(-c2ccccc2)cc1)C(=O)NC(C)(C)Cc1ccc(F)cc1)C(=O)O [Compound 7] | 1000 nM |  | 
170 nM | 838 µg/mL (≈ 1610 µM) | COC[C@@H](C[C@H](NC(=O)c1ccc(-c2ccccc2)cc1)C(=O)NC(C)(C)Cc1ccc(F)cc1)C(=O)O [Compound 8] | 1200 nM |  | 
